Data set [1] is described as follows: Second-order kinetic rate constant of the reaction between alkanolamine and CO2 (no enzyme). Format: physicochemical.
The conditions of data set [2]: cited from earlier work.
The conditions of data set [3]: forward reaction with CO2; 2 kmol/m^3 MDEA solution at 298 K; cited from earlier work.

Several values for one entry are separate records, joined by “and”; a condition that tells them apart may be missing. Equal entries are not always repeated. Where two headings read alike, the source gives them in different places.

A word on the pKa: it is the pH at which an ionisable group is half protonated.

Regarding `CCN(CC)CCO` [DEMEA, diethylethanolamine], the “k2, second-order kinetic rate constant of the reaction between amine and CO2” value (“k2, second-order kinetic rate constant” below) in data set [1] is 33.0 m^3 kmol^−1 s^−1 and 35.5 m^3 kmol^−1 s^−1 and 33.1 m^3 kmol^−1 s^−1.
As to `CN(C)CCO` [DMMEA, dimethylethanolamine], the pKa is 9.2 in data set [2] (Table 3), 9.2 in data set [2] (Table 4) and 9.22 in data set [2] (Table 14). Besides, the “k2, second-order kinetic rate constant” value is recorded as 19.5 m^3 kmol^−1 s^−1 in data set [1] (amine concentration 1.0 kmol m^−3) and 18.8 m^3 kmol^−1 s^−1 in data set [1] (amine concentration 2.0 kmol m^−3).
Take `O` [H2O, water]: in data set [3], the “1st order rate constant” value was 0.026 s⁻¹.
Regarding `O` [OH^−, hydroxide], in data set [3], the “1st order rate constant” value is 23.8 s⁻¹ and the “2nd order rate constant” value was 8.35 m^3mol^−1s^−1.
Turning to `CC(O)CN(CC(C)O)CC(C)O` (stereo not shown) [TIPA, tri-isopropanolamine], the “k2, second-order kinetic rate constant” value in data set [1] is 1.02 m^3 kmol^−1 s^−1 and 0.79 m^3 kmol^−1 s^−1.

The values above are taken from US20140106440A1, “ENHANCED ENZYMATIC CO2 CAPTURE TECHNIQUES ACCORDING TO SOLUTION PKA, TEMPERATURE AND/OR ENZYME CHARACTER” (CO2 SOLUTIONS INC., priority 2011, published 2014).
